Drawing on ChEMBL document CHEMBL5634162, “Cyclohexylalanine-Containing α-Helical Amphipathic Peptide Targets Cardiolipin, Rescuing Mitochondrial Dysfunction in Kidney Injury” (J Med Chem, 2024), this text covers Drug uptake for eleven compounds.

This series can be described thus: Drug localization in mitochondria of human HeLa cells at EC50 incubated for 3 hrs by fluorescence based assay. It counts as ADME.

Where a SMILES comes first, the peptide text is derived from it. Bridges are numbered along the chain shown (N, C = ends). Roman numbers before positions name the chains, in order. [ ]: non-standard residue; d: D form. The star is where a group is joined. 5TAMRA = CN(C)c1ccc2c(c1)Oc1cc(N(C)C)ccc1C21OC(=O)c2cc(C(=O)*)ccc21; Cha = N[C@@H](CC1CCCCC1)C(=O)O

The compound `CC(=O)N[C@@H](CC(C)C)C(=O)N[C@H]1CSSC[C@@H](C(=O)N[C@@H](CCCNC(=N)N)C(N)=O)NC(=O)[C@H](CC2CCCCC2)NC(=O)[C@H](CCCNC(=N)N)NC(=O)[C@H](CCCNC(=N)N)NC(=O)[C@H](CC(C)C)NC(=O)[C@H](CC(C)C)NC(=O)[C@H](CCCNC(=N)N)NC(=O)[C@@H](NC(=O)[C@H](CC(C)C)NC(=O)c2ccc3c(c2)C(=O)OC32c3ccc(N(C)C)cc3Oc3cc(N(C)C)ccc32)CSSC[C@@H](C(=O)N[C@@H](CCCNC(=N)N)C(N)=O)NC(=O)[C@H](CC2CCCCC2)NC(=O)[C@H](CCCNC(=N)N)NC(=O)[C@H](CCCNC(=N)N)NC(=O)[C@H](CC(C)C)NC(=O)[C@H](CC(C)C)NC(=O)[C@H](CCCNC(=N)N)NC1=O` (I: Ac-LCRLLRR[Cha]CR-NH2 / II: 5TAMRA-LCRLLRR[Cha]CR-NH2; disulfide I:2-II:9, I:9-II:2) registered a Drug uptake of 53%.

The compound `CC(=O)N[C@@H](CC(C)C)C(=O)N[C@H]1CSSC[C@@H](C(=O)N[C@@H](CCCNC(=N)N)C(N)=O)NC(=O)[C@H](CC(C)C)NC(=O)[C@H](CCCNC(=N)N)NC(=O)[C@H](CCCNC(=N)N)NC(=O)[C@H](CC2CCCCC2)NC(=O)[C@H](CC(C)C)NC(=O)[C@H](CCCNC(=N)N)NC(=O)[C@@H](NC(=O)[C@H](CC(C)C)NC(=O)c2ccc3c(c2)C(=O)OC32c3ccc(N(C)C)cc3Oc3cc(N(C)C)ccc32)CSSC[C@@H](C(=O)N[C@@H](CCCNC(=N)N)C(N)=O)NC(=O)[C@H](CC(C)C)NC(=O)[C@H](CCCNC(=N)N)NC(=O)[C@H](CCCNC(=N)N)NC(=O)[C@H](CC2CCCCC2)NC(=O)[C@H](CC(C)C)NC(=O)[C@H](CCCNC(=N)N)NC1=O` (I: Ac-LCRL[Cha]RRLCR-NH2 / II: 5TAMRA-LCRL[Cha]RRLCR-NH2; disulfide I:2-II:9, I:9-II:2) registered a Drug uptake of 53%. Under `CC(=O)N[C@@H](CC(C)C)C(=O)N[C@H]1CSSC[C@@H](C(=O)N[C@@H](CCCNC(=N)N)C(N)=O)NC(=O)[C@H](CC2CCCCC2)NC(=O)[C@H](CCCNC(=N)N)NC(=O)[C@H](CCCNC(=N)N)NC(=O)[C@H](CC2CCCCC2)NC(=O)[C@H](CC(C)C)NC(=O)[C@H](CCCNC(=N)N)NC(=O)[C@@H](NC(=O)[C@H](CC(C)C)NC(=O)c2ccc3c(c2)C(=O)OC32c3ccc(N(C)C)cc3Oc3cc(N(C)C)ccc32)CSSC[C@@H](C(=O)N[C@@H](CCCNC(=N)N)C(N)=O)NC(=O)[C@H](CC2CCCCC2)NC(=O)[C@H](CCCNC(=N)N)NC(=O)[C@H](CCCNC(=N)N)NC(=O)[C@H](CC2CCCCC2)NC(=O)[C@H](CC(C)C)NC(=O)[C@H](CCCNC(=N)N)NC1=O` (I: Ac-LCRL[Cha]RR[Cha]CR-NH2 / II: 5TAMRA-LCRL[Cha]RR[Cha]CR-NH2; disulfide I:2-II:9, I:9-II:2) stands 53%; under `CC(=O)N[C@@H](CC(C)C)C(=O)N[C@H]1CSSC[C@@H](C(=O)N[C@@H](CCCNC(=N)N)C(N)=O)NC(=O)[C@H](CC(C)C)NC(=O)[C@H](CCCNC(=N)N)NC(=O)[C@H](CCCNC(=N)N)NC(=O)[C@H](CC(C)C)NC(=O)[C@H](CC2CCCCC2)NC(=O)[C@H](CCCNC(=N)N)NC(=O)[C@@H](NC(=O)[C@H](CC(C)C)NC(=O)c2ccc3c(c2)C(=O)OC32c3ccc(N(C)C)cc3Oc3cc(N(C)C)ccc32)CSSC[C@@H](C(=O)N[C@@H](CCCNC(=N)N)C(N)=O)NC(=O)[C@H](CC(C)C)NC(=O)[C@H](CCCNC(=N)N)NC(=O)[C@H](CCCNC(=N)N)NC(=O)[C@H](CC(C)C)NC(=O)[C@H](CC2CCCCC2)NC(=O)[C@H](CCCNC(=N)N)NC1=O` (I: Ac-LCR[Cha]LRRLCR-NH2 / II: 5TAMRA-LCR[Cha]LRRLCR-NH2; disulfide I:2-II:9, I:9-II:2), 53%; under `CC(=O)N[C@@H](CC(C)C)C(=O)N[C@H]1CSSC[C@@H](C(=O)N[C@@H](CCCNC(=N)N)C(N)=O)NC(=O)[C@H](CC2CCCCC2)NC(=O)[C@H](CCCNC(=N)N)NC(=O)[C@H](CCCNC(=N)N)NC(=O)[C@H](CC(C)C)NC(=O)[C@H](CC2CCCCC2)NC(=O)[C@H](CCCNC(=N)N)NC(=O)[C@@H](NC(=O)[C@H](CC(C)C)NC(=O)c2ccc3c(c2)C(=O)OC32c3ccc(N(C)C)cc3Oc3cc(N(C)C)ccc32)CSSC[C@@H](C(=O)N[C@@H](CCCNC(=N)N)C(N)=O)NC(=O)[C@H](CC2CCCCC2)NC(=O)[C@H](CCCNC(=N)N)NC(=O)[C@H](CCCNC(=N)N)NC(=O)[C@H](CC(C)C)NC(=O)[C@H](CC2CCCCC2)NC(=O)[C@H](CCCNC(=N)N)NC1=O` (I: Ac-LCR[Cha]LRR[Cha]CR-NH2 / II: 5TAMRA-LCR[Cha]LRR[Cha]CR-NH2; disulfide I:2-II:9, I:9-II:2), 53%.

`CC(=O)N[C@@H](CC(C)C)C(=O)N[C@H]1CSSC[C@@H](C(=O)N[C@@H](CCCNC(=N)N)C(N)=O)NC(=O)[C@H](CC(C)C)NC(=O)[C@H](CCCNC(=N)N)NC(=O)[C@H](CCCNC(=N)N)NC(=O)[C@H](CC2CCCCC2)NC(=O)[C@H](CC2CCCCC2)NC(=O)[C@H](CCCNC(=N)N)NC(=O)[C@@H](NC(=O)[C@H](CC(C)C)NC(=O)c2ccc3c(c2)C(=O)OC32c3ccc(N(C)C)cc3Oc3cc(N(C)C)ccc32)CSSC[C@@H](C(=O)N[C@@H](CCCNC(=N)N)C(N)=O)NC(=O)[C@H](CC(C)C)NC(=O)[C@H](CCCNC(=N)N)NC(=O)[C@H](CCCNC(=N)N)NC(=O)[C@H](CC2CCCCC2)NC(=O)[C@H](CC2CCCCC2)NC(=O)[C@H](CCCNC(=N)N)NC1=O` (I: Ac-LCR[Cha][Cha]RRLCR-NH2 / II: 5TAMRA-LCR[Cha][Cha]RRLCR-NH2; disulfide I:2-II:9, I:9-II:2) displayed a Drug uptake of 53%. The figure for `CC(=O)N[C@@H](CC(C)C)C(=O)N[C@H]1CSSC[C@@H](C(=O)N[C@@H](CCCNC(=N)N)C(N)=O)NC(=O)[C@H](CC2CCCCC2)NC(=O)[C@H](CCCNC(=N)N)NC(=O)[C@H](CCCNC(=N)N)NC(=O)[C@H](CC2CCCCC2)NC(=O)[C@H](CC2CCCCC2)NC(=O)[C@H](CCCNC(=N)N)NC(=O)[C@@H](NC(=O)[C@H](CC(C)C)NC(=O)c2ccc3c(c2)C(=O)OC32c3ccc(N(C)C)cc3Oc3cc(N(C)C)ccc32)CSSC[C@@H](C(=O)N[C@@H](CCCNC(=N)N)C(N)=O)NC(=O)[C@H](CC2CCCCC2)NC(=O)[C@H](CCCNC(=N)N)NC(=O)[C@H](CCCNC(=N)N)NC(=O)[C@H](CC2CCCCC2)NC(=O)[C@H](CC2CCCCC2)NC(=O)[C@H](CCCNC(=N)N)NC1=O` (I: Ac-LCR[Cha][Cha]RR[Cha]CR-NH2 / II: 5TAMRA-LCR[Cha][Cha]RR[Cha]CR-NH2; disulfide I:2-II:9, I:9-II:2) is 53%; for `CC(=O)N[C@@H](CC1CCCCC1)C(=O)N[C@H]1CSSC[C@@H](C(=O)N[C@@H](CCCNC(=N)N)C(N)=O)NC(=O)[C@H](CC(C)C)NC(=O)[C@H](CCCNC(=N)N)NC(=O)[C@H](CCCNC(=N)N)NC(=O)[C@H](CC(C)C)NC(=O)[C@H](CC(C)C)NC(=O)[C@H](CCCNC(=N)N)NC(=O)[C@@H](NC(=O)[C@H](CC2CCCCC2)NC(=O)c2ccc3c(c2)C(=O)OC32c3ccc(N(C)C)cc3Oc3cc(N(C)C)ccc32)CSSC[C@@H](C(=O)N[C@@H](CCCNC(=N)N)C(N)=O)NC(=O)[C@H](CC(C)C)NC(=O)[C@H](CCCNC(=N)N)NC(=O)[C@H](CCCNC(=N)N)NC(=O)[C@H](CC(C)C)NC(=O)[C@H](CC(C)C)NC(=O)[C@H](CCCNC(=N)N)NC1=O` (I: Ac-[Cha]CRLLRRLCR-NH2 / II: 5TAMRA-[Cha]CRLLRRLCR-NH2; disulfide I:2-II:9, I:9-II:2) it is 53%. For `CC(=O)N[C@@H](CC1CCCCC1)C(=O)N[C@H]1CSSC[C@@H](C(=O)N[C@@H](CCCNC(=N)N)C(N)=O)NC(=O)[C@H](CC2CCCCC2)NC(=O)[C@H](CCCNC(=N)N)NC(=O)[C@H](CCCNC(=N)N)NC(=O)[C@H](CC(C)C)NC(=O)[C@H](CC(C)C)NC(=O)[C@H](CCCNC(=N)N)NC(=O)[C@@H](NC(=O)[C@H](CC2CCCCC2)NC(=O)c2ccc3c(c2)C(=O)OC32c3ccc(N(C)C)cc3Oc3cc(N(C)C)ccc32)CSSC[C@@H](C(=O)N[C@@H](CCCNC(=N)N)C(N)=O)NC(=O)[C@H](CC2CCCCC2)NC(=O)[C@H](CCCNC(=N)N)NC(=O)[C@H](CCCNC(=N)N)NC(=O)[C@H](CC(C)C)NC(=O)[C@H](CC(C)C)NC(=O)[C@H](CCCNC(=N)N)NC1=O` (I: Ac-[Cha]CRLLRR[Cha]CR-NH2 / II: 5TAMRA-[Cha]CRLLRR[Cha]CR-NH2; disulfide I:2-II:9, I:9-II:2), the Drug uptake is 53%. Under `CC(=O)N[C@@H](CC1CCCCC1)C(=O)N[C@H]1CSSC[C@@H](C(=O)N[C@@H](CCCNC(=N)N)C(N)=O)NC(=O)[C@H](CC(C)C)NC(=O)[C@H](CCCNC(=N)N)NC(=O)[C@H](CCCNC(=N)N)NC(=O)[C@H](CC2CCCCC2)NC(=O)[C@H](CC(C)C)NC(=O)[C@H](CCCNC(=N)N)NC(=O)[C@@H](NC(=O)[C@H](CC2CCCCC2)NC(=O)c2ccc3c(c2)C(=O)OC32c3ccc(N(C)C)cc3Oc3cc(N(C)C)ccc32)CSSC[C@@H](C(=O)N[C@@H](CCCNC(=N)N)C(N)=O)NC(=O)[C@H](CC(C)C)NC(=O)[C@H](CCCNC(=N)N)NC(=O)[C@H](CCCNC(=N)N)NC(=O)[C@H](CC2CCCCC2)NC(=O)[C@H](CC(C)C)NC(=O)[C@H](CCCNC(=N)N)NC1=O` (I: Ac-[Cha]CRL[Cha]RRLCR-NH2 / II: 5TAMRA-[Cha]CRL[Cha]RRLCR-NH2; disulfide I:2-II:9, I:9-II:2) stands 53%. The figure for `CC(=O)N[C@@H](CC1CCCCC1)C(=O)N[C@H]1CSSC[C@@H](C(=O)N[C@@H](CCCNC(=N)N)C(N)=O)NC(=O)[C@H](CC(C)C)NC(=O)[C@H](CCCNC(=N)N)NC(=O)[C@H](CCCNC(=N)N)NC(=O)[C@H](CC(C)C)NC(=O)[C@H](CC2CCCCC2)NC(=O)[C@H](CCCNC(=N)N)NC(=O)[C@@H](NC(=O)[C@H](CC2CCCCC2)NC(=O)c2ccc3c(c2)C(=O)OC32c3ccc(N(C)C)cc3Oc3cc(N(C)C)ccc32)CSSC[C@@H](C(=O)N[C@@H](CCCNC(=N)N)C(N)=O)NC(=O)[C@H](CC(C)C)NC(=O)[C@H](CCCNC(=N)N)NC(=O)[C@H](CCCNC(=N)N)NC(=O)[C@H](CC(C)C)NC(=O)[C@H](CC2CCCCC2)NC(=O)[C@H](CCCNC(=N)N)NC1=O` (I: Ac-[Cha]CR[Cha]LRRLCR-NH2 / II: 5TAMRA-[Cha]CR[Cha]LRRLCR-NH2; disulfide I:2-II:9, I:9-II:2) is 53%.
